In patent US9795567B2, “Immediate release formulations and dosage forms of gamma-hydroxybutyrate” (Jazz Pharmaceuticals, Inc., priority 2008, dated 2017):

Tests used:
[1] = in man, given orally; cited from earlier work
[2] = system: patients with hyperkinetic movement disorders including ethanol responsive myoclonus and essential tremor; conditions: five patients, open label; cited from earlier work
[3] = Plasma pharmacokinetics of sodium oxybate given orally (background and definition statements); conditions: human, oral

Question: With `O=C(O)CCCO` [sodium oxybate, Sodium gamma-hydroxybutyrate] as the compound, how does the plasma half-life [1] read?
Answer: The plasma half-life was “about 45 minutes”.

Question: And the “blinded ratings of ethanol responsive myoclonus and tremor” value [2]?
Answer: Its value is “dose-dependent improvements”.

Question: And the tolerability [2]?
Answer: Its tolerability is “tolerated at doses that provided clinical benefit”.

Question: And the Tmax [3]?
Answer: Its Tmax is 30 to 150 min.

Question: And the half-life [3]?
Answer: The half-life was 24 to 54 min.
